In patent US20150197492A1, “NOVEL INDENO[1,2-c]QUINOLIN-11-ONE DERIVATIVES, PREPARATION METHOD AND APPLICATION THEREOF” (National Defense Medical Center, priority 2014, published 2015):

What was measured:
Format in all cases: cell-based
[1] = test system: human PC-3 cells; assay: Sulforhodamine B (SRB) assay, cytotoxicity against PC-3 cells; conditions: SRB assay, PC-3 cells
Procedure: Add 5% Fetal Bovine Serum (FBS) to 96-well plate and fix the cells with 10% TCA after 24 hours of incubation and add the compound (T0). Add DMSO and culture for another 48 hours and the cells are fixed in 0.4% (W/V), 10% TCA and SRB, and […]. Excess SRB is washed off by 1% acetic acid and cells stained with SRB are dissolved in 10 mmol/L Trizma base. The absorbance is measured at 515 nm. The treatment time is 0 (T0), control growth (C) and the increase of the compound (Tx) in the cells are shown below and are used to calculate the increase of the concentration of the compound in percentage. Growth inhibition (GI %) is calculated using the following formula 100−[(TX−T0)/(C−T0)]×100. The 50% growth inhibition concentration (IC50) is used to confirm the concentration of compound and thus results in 50% reduction of the treated cells which control the amount of total protein.
This part of experimental results are SRB assays measuring cytotoxicity of the 26 synthesized compounds against human PC-3 cells and are summarized in Table 1 and 2.

[2] = test system: 55 to 60 cancer cell lines; conditions: 10 μM, 48 hours, all tested cell lines
[3] = test system: K-562; assay: cells; conditions: K-562 (Leukemia), 10 μM, 48 hours
[4] = test system: SR; assay: cells; conditions: SR (Leukemia), 10 μM, 48 hours
[5] = test system: NCI-H226; assay: cells; conditions: NCI-H226 (Non-Small Cell Lung Cancer), 10 μM, 48 hours
[6] = test system: NCI-H322M; assay: cells; conditions: NCI-H322M (Non-Small Cell Lung Cancer), 10 μM, 48 hours
[7] = test system: NCI-H460; assay: cells; conditions: NCI-H460 (Non-Small Cell Lung Cancer), 10 μM, 48 hours
[8] = test system: COLO 205; assay: cells; conditions: COLO 205 (Colon Cancer), 10 μM, 48 hours
[9] = test system: SW-620; assay: cells; conditions: SW-620 (Colon Cancer), 10 μM, 48 hours
[10] = test system: SF-295; assay: cells; conditions: SF-295 (CNS Cancer), 10 μM, 48 hours
[11] = test system: SF-539; assay: cells; conditions: SF-539 (CNS Cancer), 10 μM, 48 hours
[12] = test system: SNB-19; assay: cells; conditions: SNB-19 (CNS Cancer), 10 μM, 48 hours
[13] = test system: SNB-75; assay: cells; conditions: SNB-75 (CNS Cancer), 10 μM, 48 hours
[14] = test system: MALME-3M; assay: cells; conditions: MALME-3M (Melanoma), 10 μM, 48 hours
[15] = test system: M14; assay: cells; conditions: M14 (Melanoma), 10 μM, 48 hours
[16] = test system: UACC-62; assay: cells; conditions: UACC-62 (Melanoma), 10 μM, 48 hours
[17] = test system: OVCAR-4; assay: cells; conditions: OVCAR-4 (Ovarian Cancer), 10 μM, 48 hours
[18] = test system: OVCAR-8; assay: cells; conditions: OVCAR-8 (Ovarian Cancer), 10 μM, 48 hours
[19] = test system: SK-OV-3; assay: cells; conditions: SK-OV-3 (Ovarian Cancer), 10 μM, 48 hours
[20] = test system: A498; assay: cells; conditions: A498 (Renal Cancer), 10 μM, 48 hours
[21] = test system: ACHN; assay: cells; conditions: ACHN (Renal Cancer), 10 μM, 48 hours
[22] = test system: SN12C; assay: cells; conditions: SN12C (Renal Cancer), 10 μM, 48 hours
[23] = test system: PC-3; assay: cells; conditions: PC-3 (Prostate Cancer), 10 μM, 48 hours
[24] = test system: DU-145; assay: cells; conditions: DU-145 (Prostate Cancer), 10 μM, 48 hours
[25] = test system: MCF7; assay: cells; conditions: MCF7 (Breast Cancer), 10 μM, 48 hours
[26] = test system: MDA-MB-231/ATCC; assay: cells; conditions: MDA-MB-231/ATCC (Breast Cancer), 10 μM, 48 hours
[27] = test system: T-47D; assay: cells; conditions: T-47D (Breast Cancer), 10 μM, 48 hours
[28] = test system: MDA-MB-468; assay: cells; conditions: MDA-MB-468 (Breast Cancer), 10 μM, 48 hours

Compound | Toxicity (%) [1] [%] | GI % (10 μM) [1] [%] | Mean (mean growth percentage of the tested cancer cell lines) [2] [%] | growth percentage [3] [%] | growth percentage [4] [%] | growth percentage [5] [%] | growth percentage [6] [%] | growth percentage [7] [%] | growth percentage [8] [%] | growth percentage [9] [%] | growth percentage [10] [%] | growth percentage [11] [%] | growth percentage [12] [%] | growth percentage [13] [%] | growth percentage [14] [%] | growth percentage [15] [%] | growth percentage [16] [%] | growth percentage [17] [%] | growth percentage [18] [%] | growth percentage [19] [%] | also measured
CC1CCN(c2nc3ccccc3c3c2-c2ccc(Cl)cc2C3=O)CC1 [SJ-6, 9-Chloro-6-(4-methylpiperidin-1-yl)-11H-indeno[1,2-c]quinolin-11-one] | 0 | 89.81 | 96.2 | 103.57 | 98.51 | 94.59 | 107.08 | 101.21 | 104.79 | 88.89 | 96.18 | 90.22 | 103.87 | 84.42 | 98.31 | 96.60 | 93.36 | 97.11 | 96.38 | 99.78 | growth percentage [20]: 87.55%; growth percentage [21]: 94.75%; growth percentage [22]: 99.08%; growth percentage [23]: 90.64%; growth percentage [24]: 103.47%; growth percentage [25]: 64.65%; growth percentage [26]: 90.96%; growth percentage [27]: 67.68%; growth percentage [28]: 97.12%
O=C1c2cc(Cl)ccc2-c2c(N3CCN(C4CCCC4)CC3)nc3ccccc3c21 [SJ-14, 9-Chloro-6-(4-cyclopentylpiperazin-1-yl)-11H-indeno[1,2-c]quinolin-11-one] | 0 | 96.26 | 96.53 | 99.26 | 97.09 | 92.80 | 98.50 | 101.46 | 104.54 | 93.06 | 96.87 | 101.34 | 95.06 | 86.36 | 92.48 | 105.34 | 95.06 | 94.20 | 96.55 | 96.85 | growth percentage [20]: 88.64%; growth percentage [21]: 100.03%; growth percentage [22]: 99.08%; growth percentage [23]: 86.19%; growth percentage [24]: 110.73%; growth percentage [25]: 75.18%; growth percentage [26]: 82.96%; growth percentage [27]: 92.20%; growth percentage [28]: 103.99%
O=C1c2cc(Cl)ccc2-c2c(N3CCN(c4ccccc4)CC3)nc3ccccc3c21 [SJ-16, 9-Chloro-6-(4-phenylpiperazin-1-yl)-11H-indeno[1,2-c]quinolin-11-one] | 0 | 65.91 | 87.29 | 95.17 | 95.93 | 79.43 | 98.63 | 97.04 | 102.19 | 93.14 | 60.91 | 83.17 | 88.40 | 33.20 | 100.05 | 97.52 | 87.17 | 90.32 | 75.82 | 78.58 | growth percentage [20]: 97.48%; growth percentage [21]: 68.58%; growth percentage [22]: 87.90%; growth percentage [23]: 79.79%; growth percentage [24]: 102.96%; growth percentage [25]: 53.31%; growth percentage [26]: 73.80%; growth percentage [27]: 75.93%; growth percentage [28]: 95.37%
COc1cccc(N2CCN(c3nc4ccccc4c4c3-c3ccc(Cl)cc3C4=O)CC2)c1 [SJ-20, 9-Chloro-6-(4-(3-methoxyphenyl)piperazin-1-yl)-11H-indeno[1,2-c]quinolin-11-one] | 0 | 98.05 | 92.15 | 94.25 | 95.05 | 89.19 | 91.93 | 101.76 | 106.63 | 91.16 | 90.05 | 83.97 | 105.27 | 37.76 | 92.79 | 105.07 | 86.44 | 87.08 | 83.98 | 86.02 | growth percentage [20]: 104.53%; growth percentage [21]: 93.51%; growth percentage [22]: 88.17%; growth percentage [23]: 72.83%; growth percentage [24]: 98.98%; growth percentage [25]: 77.46%; growth percentage [26]: 79.81%; growth percentage [27]: 86.68%; growth percentage [28]: 101.04%
